# From US20020137929A1, “1 - (3-heterocyclylphenyl) isothiourea, -isourea, -guanidine and -amidine herbicidal agents” (Intellectual Property Department, BASF Aktiengesellschaft, priority 1998, published 2002)
# Key:
# CASOB (Sicklepod) = assay: Postemergence herbicidal evaluation; assay type: in vivo, Cassia obtusifolia
# How it was run: (§1)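 Two-week-old seedlings sprayed with compound in 50/50 acetone/water plus 0.5% TWEEN 20, at about 0.0156 to 0.500 kg/ha, nozzle at 40 psi. Kept in greenhouse; rated visually 4-5 weeks after treatment on a 0-9 scale versus control, repeat tests averaged.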
# [1] = test system: CHEAL (Lambsquarters, Common); assay: Postemergence herbicidal evaluation; assay type: in vivo, Chenopodium album
# How it was run: as §1
# ECHCG (Barnyardgrass) = assay: Postemergence herbicidal evaluation; assay type: in vivo, Echinochloa crus-galli
# How it was run: as §1
# ORYSAT (Rice, Tebonnet) [2] = assay: Postemergence herbicidal evaluation; assay type: in vivo, Oryza sativa, (L.) Tebonnet
# How it was run: as §1
# GALAP (Galium) = assay: Preemergence herbicidal evaluation; assay type: in vivo, Galium aparine; settings: rated 4-5 weeks after treatment
# How it was run: (§2)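 Test compound, dissolved in aqueous acetone, was sprayed over planted soil cups at an equivalent of about 0.0156 to 0.500 kg/ha; seeds had been mixed with potting soil. Greenhouse growth followed, with visual 0-9 scoring of injury at four to five weeks.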
# SETVI (Foxtail, Green) = assay: Preemergence herbicidal evaluation; assay type: in vivo, Setaria viridis; settings: rated 4-5 weeks after treatment
# How it was run: as §2
# [3] = test system: GLXMAW (Soybean, Williams); assay: Preemergence herbicidal evaluation; assay type: in vivo, Glycine max, (L.) Merr. cv Williams; settings: rated 4-5 weeks after treatment
# How it was run: as §2
# ORYSAT (Rice, Tebonnet) [4] = assay: Preemergence herbicidal evaluation; assay type: in vivo, Oryza sativa, (L.) Tebonnet; settings: rated 4-5 weeks after treatment
# How it was run: as §2
# [5] = test system: TRZAWR (Wheat, Winter, cv Riband); assay: Preemergence herbicidal evaluation; assay type: in vivo, Triticum aestivum; settings: rated 4-5 weeks after treatment
# How it was run: as §2
# ZEAMX (Corn, Field) = assay: Preemergence herbicidal evaluation; assay type: in vivo, Zea mays; settings: rated 4-5 weeks after treatment
# How it was run: as §2
# CYPIR (Rice Flatsedge) = assay: Preemergence weed control under flooded paddy conditions; assay type: in vivo, Cyperus iria; settings: rated 3-4 weeks after treatment
# How it was run: (§3)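 Herbicidal effect is scored visually on a 0-9 scale against an untreated control, three to four weeks after compounds are pipetted into the flood water (1.5 to 3 cm deep) over seeds planted in silt loam at 0.5 cm depth. Rates: about 0.0313 to 0.500 kg/ha.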
# MOOVA (Monochoria) = assay: as above; assay type: in vivo, Monochoria vaginalis; settings: rated 3-4 weeks after treatment
# How it was run: as §3
# [6] = test system: SAGPY (Arrowhead (Pygmaea)); assay: as above; assay type: in vivo, Sagittaria pygmaea; settings: rated 3-4 weeks after treatment
# How it was run: as §3
# CYPSE (Flatsedge) = assay: Postemergence weed control under flooded paddy conditions; assay type: in vivo, Cyperus serotinus; settings: postemergence weeds, 3-4 weeks after treatment
# How it was run: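 Herbicidal effect is judged by eye on a 0–9 scale versus control, 3–4 weeks after dosing. Dosing is into flood water kept 1.5–3 cm over the soil, at about 0.0313–0.500 kg/ha in aqueous/acetone 50/50 v/v, on 3–5 cm weeds and 1.5–2.5-leaf rice seedlings.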
compound,measurement,setting,value
"Cn1c(C(F)(F)F)cc(=O)n(-c2cc(N=C3NC(=O)CS3)c(Cl)cc2F)c1=O [Compound 39, 3-{4-Chloro-2-fluoro-5-[(4-oxo-2-thiazolidinylidene)amino]phenyl}-1-methyl-6-(trifluoromethyl)-2,4(1H,3H)-pyrimidinedione]",Postemergence herbicidal rating CASOB,CASOB (Sicklepod); Rate 0.0158 kg/ha,0.0
same,Postemergence herbicidal rating CASOB,CASOB (Sicklepod); Rate 0.0315 kg/ha,0.0
same,Postemergence herbicidal rating CASOB,CASOB (Sicklepod); Rate 0.0630 kg/ha,0.0
same,Postemergence herbicidal rating CHEAL,[1]; Rate 0.0158 kg/ha,1.0
same,Postemergence herbicidal rating CHEAL,[1]; Rate 0.0315 kg/ha,1.0
same,Postemergence herbicidal rating CHEAL,[1]; Rate 0.0630 kg/ha,1.0
same,Postemergence herbicidal rating ECHCG,ECHCG (Barnyardgrass); Rate 0.0158 kg/ha,0.0
same,Postemergence herbicidal rating ECHCG,ECHCG (Barnyardgrass); Rate 0.0315 kg/ha,0.0
same,Postemergence herbicidal rating ECHCG,ECHCG (Barnyardgrass); Rate 0.0630 kg/ha,0.0
same,Postemergence herbicidal rating ORYSAT,"ORYSAT (Rice, Tebonnet) [2]; Rate 0.0158 kg/ha",1.5
same,Postemergence herbicidal rating ORYSAT,"ORYSAT (Rice, Tebonnet) [2]; Rate 0.0315 kg/ha",1.5
same,Postemergence herbicidal rating ORYSAT,"ORYSAT (Rice, Tebonnet) [2]; Rate 0.0630 kg/ha",2.0
same,Preemergence herbicidal rating GALAP,GALAP (Galium); rate 0.0156 kg/ha,0.0
same,Preemergence herbicidal rating GALAP,GALAP (Galium); rate 0.0313 kg/ha,0.0
same,Preemergence herbicidal rating GALAP,GALAP (Galium); rate 0.0625 kg/ha,0.0
same,Preemergence herbicidal rating GALAP,GALAP (Galium); rate 0.1250 kg/ha,6.0
same,Preemergence herbicidal rating GALAP,GALAP (Galium); rate 0.2500 kg/ha,9.0
same,Preemergence herbicidal rating SETVI,"SETVI (Foxtail, Green); rate 0.0156 kg/ha",0.0
same,Preemergence herbicidal rating SETVI,"SETVI (Foxtail, Green); rate 0.0313 kg/ha",0.0
same,Preemergence herbicidal rating SETVI,"SETVI (Foxtail, Green); rate 0.0625 kg/ha",0.0
same,Preemergence herbicidal rating SETVI,"SETVI (Foxtail, Green); rate 0.1250 kg/ha",0.0
same,Preemergence herbicidal rating SETVI,"SETVI (Foxtail, Green); rate 0.2500 kg/ha",2.0
same,Preemergence herbicidal rating GLXMAW,[3]; rate 0.0156 kg/ha,0.0
same,Preemergence herbicidal rating GLXMAW,[3]; rate 0.0313 kg/ha,0.0
same,Preemergence herbicidal rating GLXMAW,[3]; rate 0.0625 kg/ha,0.0
same,Preemergence herbicidal rating GLXMAW,[3]; rate 0.1250 kg/ha,5.0
same,Preemergence herbicidal rating GLXMAW,[3]; rate 0.2500 kg/ha,7.0
same,Preemergence herbicidal rating ORYSAT,"ORYSAT (Rice, Tebonnet) [4]; rate 0.0156 kg/ha",0.0
same,Preemergence herbicidal rating ORYSAT,"ORYSAT (Rice, Tebonnet) [4]; rate 0.0313 kg/ha",0.0
same,Preemergence herbicidal rating ORYSAT,"ORYSAT (Rice, Tebonnet) [4]; rate 0.0625 kg/ha",0.0
same,Preemergence herbicidal rating ORYSAT,"ORYSAT (Rice, Tebonnet) [4]; rate 0.1250 kg/ha",1.0
same,Preemergence herbicidal rating ORYSAT,"ORYSAT (Rice, Tebonnet) [4]; rate 0.2500 kg/ha",2.0
same,Preemergence herbicidal rating TRZAWR,[5]; rate 0.0156 kg/ha,0.0
same,Preemergence herbicidal rating TRZAWR,[5]; rate 0.0313 kg/ha,0.0
same,Preemergence herbicidal rating TRZAWR,[5]; rate 0.0625 kg/ha,0.0
same,Preemergence herbicidal rating TRZAWR,[5]; rate 0.1250 kg/ha,1.0
same,Preemergence herbicidal rating TRZAWR,[5]; rate 0.2500 kg/ha,2.0
same,Preemergence herbicidal rating ZEAMX,"ZEAMX (Corn, Field); rate 0.0156 kg/ha",0.0
same,Preemergence herbicidal rating ZEAMX,"ZEAMX (Corn, Field); rate 0.0313 kg/ha",0.0
same,Preemergence herbicidal rating ZEAMX,"ZEAMX (Corn, Field); rate 0.0625 kg/ha",0.0
same,Preemergence herbicidal rating ZEAMX,"ZEAMX (Corn, Field); rate 0.1250 kg/ha",2.0
same,Preemergence herbicidal rating ZEAMX,"ZEAMX (Corn, Field); rate 0.2500 kg/ha",5.0
same,Herbicidal rating CYPIR,CYPIR (Rice Flatsedge); 0.0313 kg/ha,0.0
same,Herbicidal rating CYPIR,CYPIR (Rice Flatsedge); 0.0625 kg/ha,0.0
same,Herbicidal rating CYPIR,CYPIR (Rice Flatsedge); 0.1250 kg/ha,0.0
same,Herbicidal rating CYPIR,CYPIR (Rice Flatsedge); 0.2500 kg/ha,0.0
same,Herbicidal rating MOOVA,MOOVA (Monochoria); 0.0313 kg/ha,9.0
same,Herbicidal rating MOOVA,MOOVA (Monochoria); 0.0625 kg/ha,9.0
same,Herbicidal rating MOOVA,MOOVA (Monochoria); 0.1250 kg/ha,9.0
same,Herbicidal rating MOOVA,MOOVA (Monochoria); 0.2500 kg/ha,9.0
same,Herbicidal rating SAGPY,[6]; 0.0313 kg/ha,0.0
same,Herbicidal rating SAGPY,[6]; 0.0625 kg/ha,0.0
same,Herbicidal rating SAGPY,[6]; 0.1250 kg/ha,0.0
same,Herbicidal rating SAGPY,[6]; 0.2500 kg/ha,4.0
same,Herbicidal rating CYPSE,CYPSE (Flatsedge); rate 0.0313 kg/ha,0.0
same,Herbicidal rating CYPSE,CYPSE (Flatsedge); rate 0.0625 kg/ha,0.0
same,Herbicidal rating CYPSE,CYPSE (Flatsedge); rate 0.1250 kg/ha,0.0
same,Herbicidal rating CYPSE,CYPSE (Flatsedge); rate 0.2500 kg/ha,0.0
